In ChEMBL document CHEMBL3044904, “Mild and highly efficient copper (II) sulfate catalyzed one pot synthesis of 2-aryl benzimidazole using atmospheric air as an oxidant and its antibacterial study” (2013) one finds MIC data, which are given here for ten molecules.

Common to all, as to format: functional
One experiment relates to Staphylococcus aureus. The experiment in a line: Antibacterial activity against Staphylococcus aureus ATCC 11632 assessed as growth inhibition after 24 hr by two-fold serial dilution method. The following applies: ATCC 11632, 24 h.
A further experiment deals with Salmonella typhi. The experiment in a line: Antibacterial activity against Salmonella enterica subsp. enterica serovar Typhi ATCC 15499 assessed as growth inhibition after 24 hr by two-fold serial dilution method. The following applies: ATCC 15499, 24 h.
A further experiment relates to Enterococcus faecalis. The experiment in a line: Antibacterial activity against Enterococcus feacalis clinical isolate assessed as growth inhibition after 24 hr by two-fold serial dilution method.
A further experiment relates to Pseudomonas aeruginosa. The experiment in a line: Antibacterial activity against Pseudomonas aeruginosa ATCC 23564 assessed as growth inhibition after 24 hr by two-fold serial dilution method. The settings on record: ATCC 23564, 24 h.
In the next experiment the test system is Escherichia coli. Put plainly: Antibacterial activity against Escherichia coli ATCC 35218 assessed as growth inhibition after 24 hr by two-fold serial dilution method. The settings on record: ATCC 35218, 24 h.
A further experiment deals with Bacillus cereus. The experiment in a line: Antibacterial activity against Bacillus cereus MTCC 7350 assessed as growth inhibition after 24 hr by two-fold serial dilution method. The following applies: MTCC 7350, 24 h.

The term MIC denotes the smallest concentration in the dilution series that meets the test's criterion for growth inhibition.

In brackets after ≈: the same amount, converted by molar mass.

With `Clc1ccc(-c2nc3ccccc3[nH]2)cc1`, the MIC in the experiment on Staphylococcus aureus is 12.5 µg/mL (≈ 54.7 µM); in the experiment on Salmonella typhi, 25 µg/mL (≈ 109 µM); in the experiment on Enterococcus faecalis, 12.5 µg/mL (≈ 54.7 µM); in the experiment on Pseudomonas aeruginosa, 12.5 µg/mL (≈ 54.7 µM); with Escherichia coli, 25 µg/mL (≈ 109 µM); in the experiment on Bacillus cereus it was 6.25 µg/mL (≈ 27.3 µM).

Consider `C(=C\c1ccc(-c2nc3ccccc3[nH]2)cc1)/c1ccccc1`, for which the MIC in the experiment on Staphylococcus aureus worked out at 12.5 µg/mL (≈ 42.2 µM); in the experiment on Salmonella typhi, 25 µg/mL (≈ 84.4 µM); with Enterococcus faecalis, 25 µg/mL (≈ 84.4 µM); with Pseudomonas aeruginosa, 12.5 µg/mL (≈ 42.2 µM); in the experiment with Escherichia coli it was 50 µg/mL (≈ 169 µM); in the experiment on Bacillus cereus, 6.25 µg/mL (≈ 21.1 µM).

Consider `Oc1ccccc1-c1nc2ccccc2[nH]1`, for which the minimum inhibitory concentration (MIC) with Staphylococcus aureus was determined as 25 µg/mL (≈ 119 µM); with Salmonella typhi, 400 µg/mL (≈ 1900 µM); in the experiment on Enterococcus faecalis it was 50 µg/mL (≈ 238 µM); in the experiment with Pseudomonas aeruginosa, 25 µg/mL (≈ 119 µM); with Escherichia coli, 400 µg/mL (≈ 1900 µM); with Bacillus cereus it was 6.25 µg/mL (≈ 29.7 µM).

Regarding `Cc1ccc(-c2nc3ccccc3[nH]2)cc1`, the MIC with Staphylococcus aureus turned out to be 25 µg/mL (≈ 120 µM); in the experiment on Salmonella typhi, 50 µg/mL (≈ 240 µM); in the experiment with Enterococcus faecalis, 50 µg/mL (≈ 240 µM); in the experiment on Pseudomonas aeruginosa, 12.5 µg/mL (≈ 60 µM); in the experiment on Escherichia coli, 50 µg/mL (≈ 240 µM); with Bacillus cereus it was 200 µg/mL (≈ 960 µM).

As for `Oc1ccc(-c2nc3ccccc3[nH]2)cc1`, the minimum inhibitory concentration (MIC) in the experiment on Staphylococcus aureus is 25 µg/mL (≈ 119 µM); in the experiment with Salmonella typhi, 400 µg/mL (≈ 1900 µM); in the experiment with Enterococcus faecalis it was 100 µg/mL (≈ 476 µM); in the experiment with Pseudomonas aeruginosa, 25 µg/mL (≈ 119 µM); in the experiment on Escherichia coli, 400 µg/mL (≈ 1900 µM); in the experiment on Bacillus cereus, 50 µg/mL (≈ 238 µM).

Consider `c1ccc(-c2nc3ccccc3[nH]2)cc1`, for which the MIC in the experiment on Staphylococcus aureus turned out to be 12.5 µg/mL (≈ 64.4 µM); in the experiment on Salmonella typhi, 6.25 µg/mL (≈ 32.2 µM); with Enterococcus faecalis, 12.5 µg/mL (≈ 64.4 µM); in the experiment with Pseudomonas aeruginosa, 12.5 µg/mL (≈ 64.4 µM); with Escherichia coli, 50 µg/mL (≈ 257 µM); with Bacillus cereus, 50 µg/mL (≈ 257 µM).

For the molecule `O=[N+]([O-])c1ccc(-c2nc3ccccc3[nH]2)cc1`, the minimum inhibitory concentration (MIC) with Staphylococcus aureus was 50 µg/mL (≈ 209 µM); in the experiment with Salmonella typhi it was 25 µg/mL (≈ 105 µM); in the experiment with Enterococcus faecalis, 25 µg/mL (≈ 105 µM); in the experiment with Pseudomonas aeruginosa, 12.5 µg/mL (≈ 52.3 µM); in the experiment with Escherichia coli, 50 µg/mL (≈ 209 µM); with Bacillus cereus, 25 µg/mL (≈ 105 µM).

Take `CC1(C)S[C@@H]2[C@H](NC(=O)[C@H](N)c3ccccc3)C(=O)N2[C@H]1C(=O)O` [AMPICILLIN]: the MIC worked out at 50 µg/mL (≈ 143 µM) in the experiment with Staphylococcus aureus; 6.25 µg/mL (≈ 17.9 µM) in the experiment with Salmonella typhi; 400 µg/mL (≈ 1140 µM) with Enterococcus faecalis; 50 µg/mL (≈ 143 µM) in the experiment with Pseudomonas aeruginosa; 400 µg/mL (≈ 1140 µM) in the experiment with Escherichia coli; 50 µg/mL (≈ 143 µM) in the experiment with Bacillus cereus.

On to `O=C(O)c1cn(C2CC2)c2cc(N3CCNCC3)c(F)cc2c1=O` [CIPROFLOXACIN], for which the MIC in the experiment on Salmonella typhi stood at 3.12 µg/mL (≈ 9.42 µM); in the experiment on Pseudomonas aeruginosa it was 1.25 µg/mL (≈ 3.77 µM).

Turning to `COc1ccc(-c2nc3ccccc3[nH]2)cc1`, the minimal inhibitory concentration (MIC) with Staphylococcus aureus was 12.5 µg/mL (≈ 55.7 µM); with Salmonella typhi, 25 µg/mL (≈ 111 µM); in the experiment with Enterococcus faecalis, 25 µg/mL (≈ 111 µM); with Pseudomonas aeruginosa, 25 µg/mL (≈ 111 µM); with Escherichia coli it was 50 µg/mL (≈ 223 µM); with Bacillus cereus, 50 µg/mL (≈ 223 µM).
